In series [1] the target is T1, UDP-3-O-acyl-N-acetylglucosamine deacetylase (Pseudomonas aeruginosa (strain ATCC 15692 / PAO1 / 1C / PRS 101 / LMG12228), UniProt P47205).
T1 sequence (P47205 whole entry): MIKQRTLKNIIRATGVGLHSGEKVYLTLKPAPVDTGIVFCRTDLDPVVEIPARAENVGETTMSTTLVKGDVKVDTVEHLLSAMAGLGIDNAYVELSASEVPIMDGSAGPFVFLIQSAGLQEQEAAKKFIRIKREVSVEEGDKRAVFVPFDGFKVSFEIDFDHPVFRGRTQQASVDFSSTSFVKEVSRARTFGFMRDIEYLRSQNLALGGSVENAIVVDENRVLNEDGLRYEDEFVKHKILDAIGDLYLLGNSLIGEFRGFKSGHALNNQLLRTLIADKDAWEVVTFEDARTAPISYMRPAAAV
Put plainly: Inhibition of Pseudomonas aeruginosa LpxC using UDP-3-O-(R-hydroxydecanoyl)-N-acetylglucosamine incubated for 30 mins prior to substrate addition measured after 60 mins by mass spectrophotometry.

The test system of series [2] is Pseudomonas aeruginosa. Put plainly: Antibacterial activity against Pseudomonas aeruginosa PAO1 after 16 to 20 hrs by broth microdilution method. The series is classed as functional. In general terms: Broth dilution looks for growth in wells or tubes with falling amounts of substance.
Series [3] has as its system Staphylococcus aureus. The experiment in a line: Antibacterial activity against Staphylococcus aureus ATCC 29213 after 16 to 20 hrs by broth microdilution method. The series is classed as functional.
The test system of series [4] is Pseudomonas aeruginosa. Put plainly: Antibacterial activity against Pseudomonas aeruginosa after 16 to 20 hrs by broth microdilution method. Type of series: functional.
In series [5] the test system is Klebsiella pneumoniae. The experiment in a line: Antibacterial activity against Klebsiella pneumoniae after 16 to 20 hrs by broth microdilution method. Type of series: functional.
The test system of series [6] is Escherichia coli. Put plainly: Antibacterial activity against Escherichia coli after 16 to 20 hrs by broth microdilution method. The series is classed as functional.
In series [7] the test system is Klebsiella aerogenes. The experiment in a line: Antibacterial activity against Enterobacter aerogenes after 16 to 20 hrs by broth microdilution method. The series is classed as functional.
In series [8] the test system is Citrobacter freundii. The experiment in a line: Antibacterial activity against Citrobacter freundii after 16 to 20 hrs by broth microdilution method. Type of series: functional.
Series [9] deals with Acinetobacter baumannii. Put plainly: Antibacterial activity against Acinetobacter baumannii after 16 to 20 hrs by broth microdilution method. Type of series: functional.
A short description of series [10]: Clearance in rat at 10 mg/kg, iv. Type of series: ADME, organism-based. On the set-up: dose 10 mg/kg, route intravenous. Conditions: in vivo.
Series [11] in a line: Volume of distribution at steady state in rat at 10 mg/kg, iv. Type of series: ADME, organism-based. Also on record: dose 10 mg/kg, route intravenous. The following applies: in vivo, read-out: Vdss.
Series [12] is described as follows: AUC in rat at 10 mg/kg, iv. Also on record: dose 10 mg/kg, route intravenous. The series is classed as ADME, organism-based. Conditions: plasma.
The nature of series [13]: Half life in rat at 10 mg/kg, iv. The series is classed as ADME, organism-based. Also on record: dose 10 mg/kg, route intravenous. Conditions: in vivo.
Series [14] has as its system Pseudomonas aeruginosa. Put plainly: Antibacterial activity against Pseudomonas aeruginosa clinical isolates after 16 to 20 hrs by broth microdilution method. The series is classed as functional.
In series [15] the test system is Pseudomonas aeruginosa. The experiment in a line: Antibacterial activity against mexAB-OprM,mexXY,MexZ-deficient Pseudomonas aeruginosa PAO280 by broth microdilution technique. The series is classed as functional.
For series [16], the target named is Interstitial collagenase (Homo sapiens, UniProt P03956). Put plainly: Inhibition of human MMP1.
Sequence of Interstitial collagenase (P03956 whole entry): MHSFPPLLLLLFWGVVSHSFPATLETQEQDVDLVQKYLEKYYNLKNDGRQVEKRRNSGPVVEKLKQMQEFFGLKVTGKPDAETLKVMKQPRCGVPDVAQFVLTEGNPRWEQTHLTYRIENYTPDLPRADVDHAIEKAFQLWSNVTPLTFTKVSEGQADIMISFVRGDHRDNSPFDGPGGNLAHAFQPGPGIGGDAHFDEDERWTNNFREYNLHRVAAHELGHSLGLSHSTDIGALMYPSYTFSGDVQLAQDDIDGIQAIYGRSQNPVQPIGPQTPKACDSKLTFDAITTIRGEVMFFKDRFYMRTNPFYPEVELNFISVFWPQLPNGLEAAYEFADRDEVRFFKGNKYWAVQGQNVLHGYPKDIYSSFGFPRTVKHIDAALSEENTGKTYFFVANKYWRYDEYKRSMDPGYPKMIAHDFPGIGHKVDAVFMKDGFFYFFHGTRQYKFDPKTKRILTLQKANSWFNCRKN
Series [17] deals with Stromelysin-1 (Homo sapiens, UniProt P08254). The experiment in a line: Inhibition of human MMP3.
Sequence of Stromelysin-1 (P08254 whole entry): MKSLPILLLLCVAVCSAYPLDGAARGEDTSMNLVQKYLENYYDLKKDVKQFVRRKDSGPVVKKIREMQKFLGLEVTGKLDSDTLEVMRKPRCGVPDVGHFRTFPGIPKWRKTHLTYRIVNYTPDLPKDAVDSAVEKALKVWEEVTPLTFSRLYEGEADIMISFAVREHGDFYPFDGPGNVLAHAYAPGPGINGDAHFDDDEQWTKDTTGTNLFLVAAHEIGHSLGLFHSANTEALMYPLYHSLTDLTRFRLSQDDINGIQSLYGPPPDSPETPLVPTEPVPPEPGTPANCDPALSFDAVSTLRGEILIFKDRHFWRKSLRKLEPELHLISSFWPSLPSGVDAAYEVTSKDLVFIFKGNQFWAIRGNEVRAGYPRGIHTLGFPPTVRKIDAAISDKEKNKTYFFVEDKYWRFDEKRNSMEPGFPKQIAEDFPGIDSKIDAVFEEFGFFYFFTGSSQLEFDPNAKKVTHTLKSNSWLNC
Series [18] has as its target Matrilysin (Homo sapiens, UniProt P09237). Put plainly: Inhibition of human MMP7.
Series [19] addresses Neutrophil collagenase (Homo sapiens, UniProt P22894). The experiment in a line: Inhibition of human MMP8.
Series [20] concerns the target Matrix metalloproteinase-9 (Homo sapiens, UniProt P14780). The experiment in a line: Inhibition of human MMP9.
The target of series [21] is Stromelysin-2 (Homo sapiens, UniProt P09238). The experiment in a line: Inhibition of human MMP10.
For series [22], the target named is Macrophage metalloelastase (Homo sapiens, UniProt P39900). The experiment in a line: Inhibition of human MMP12.
Sequence of Macrophage metalloelastase (P39900 whole entry): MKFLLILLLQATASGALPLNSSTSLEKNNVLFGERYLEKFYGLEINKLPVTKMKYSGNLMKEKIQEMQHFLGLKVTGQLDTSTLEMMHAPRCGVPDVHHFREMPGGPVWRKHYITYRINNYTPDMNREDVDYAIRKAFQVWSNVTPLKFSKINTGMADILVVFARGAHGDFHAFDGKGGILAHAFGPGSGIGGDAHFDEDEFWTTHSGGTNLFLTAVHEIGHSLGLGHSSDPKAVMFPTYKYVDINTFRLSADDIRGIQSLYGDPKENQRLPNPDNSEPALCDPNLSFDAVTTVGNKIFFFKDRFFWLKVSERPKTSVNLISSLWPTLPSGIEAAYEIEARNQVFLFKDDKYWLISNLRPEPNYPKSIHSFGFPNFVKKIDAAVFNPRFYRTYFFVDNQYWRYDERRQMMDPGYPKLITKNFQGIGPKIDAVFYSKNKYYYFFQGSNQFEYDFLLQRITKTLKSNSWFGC
The target of series [23] is Collagenase 3 (Homo sapiens, UniProt P45452). Put plainly: Inhibition of human MMP13.
For series [24], the target named is Matrix metalloproteinase-14 (Homo sapiens, UniProt P50281). Put plainly: Inhibition of human MMP14.
Series [25] has as its target Matrix metalloproteinase-15 (Homo sapiens, UniProt P51511). The experiment in a line: Inhibition of human MMP15.
The target of series [26] is Matrix metalloproteinase-16 (Homo sapiens, UniProt P51512). The experiment in a line: Inhibition of human MMP16.
Sequence of Matrix metalloproteinase-16 (P51512 whole entry): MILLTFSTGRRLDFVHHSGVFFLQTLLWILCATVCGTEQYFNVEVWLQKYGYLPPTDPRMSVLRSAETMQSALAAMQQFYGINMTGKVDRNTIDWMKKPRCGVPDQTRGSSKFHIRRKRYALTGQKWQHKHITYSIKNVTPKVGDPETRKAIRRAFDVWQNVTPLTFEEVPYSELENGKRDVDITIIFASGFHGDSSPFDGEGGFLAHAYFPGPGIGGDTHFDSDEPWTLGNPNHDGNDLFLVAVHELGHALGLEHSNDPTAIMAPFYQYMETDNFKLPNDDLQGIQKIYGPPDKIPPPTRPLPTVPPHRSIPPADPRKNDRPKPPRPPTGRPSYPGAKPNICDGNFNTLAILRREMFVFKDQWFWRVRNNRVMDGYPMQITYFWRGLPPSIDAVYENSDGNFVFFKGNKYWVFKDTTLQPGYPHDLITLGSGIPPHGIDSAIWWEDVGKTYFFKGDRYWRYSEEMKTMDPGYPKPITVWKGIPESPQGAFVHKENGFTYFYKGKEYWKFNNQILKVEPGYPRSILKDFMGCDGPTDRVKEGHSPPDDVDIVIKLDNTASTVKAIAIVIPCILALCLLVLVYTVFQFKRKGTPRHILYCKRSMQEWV
In series [27] the target is Matrix metalloproteinase-20 (Homo sapiens, UniProt O60882). Put plainly: Inhibition of human MMP20.
In series [28] the target is Matrix metalloproteinase-24 (Homo sapiens, UniProt Q9Y5R2). Put plainly: Inhibition of human MMP24.
Sequence of Matrix metalloproteinase-24 (Q9Y5R2 whole entry): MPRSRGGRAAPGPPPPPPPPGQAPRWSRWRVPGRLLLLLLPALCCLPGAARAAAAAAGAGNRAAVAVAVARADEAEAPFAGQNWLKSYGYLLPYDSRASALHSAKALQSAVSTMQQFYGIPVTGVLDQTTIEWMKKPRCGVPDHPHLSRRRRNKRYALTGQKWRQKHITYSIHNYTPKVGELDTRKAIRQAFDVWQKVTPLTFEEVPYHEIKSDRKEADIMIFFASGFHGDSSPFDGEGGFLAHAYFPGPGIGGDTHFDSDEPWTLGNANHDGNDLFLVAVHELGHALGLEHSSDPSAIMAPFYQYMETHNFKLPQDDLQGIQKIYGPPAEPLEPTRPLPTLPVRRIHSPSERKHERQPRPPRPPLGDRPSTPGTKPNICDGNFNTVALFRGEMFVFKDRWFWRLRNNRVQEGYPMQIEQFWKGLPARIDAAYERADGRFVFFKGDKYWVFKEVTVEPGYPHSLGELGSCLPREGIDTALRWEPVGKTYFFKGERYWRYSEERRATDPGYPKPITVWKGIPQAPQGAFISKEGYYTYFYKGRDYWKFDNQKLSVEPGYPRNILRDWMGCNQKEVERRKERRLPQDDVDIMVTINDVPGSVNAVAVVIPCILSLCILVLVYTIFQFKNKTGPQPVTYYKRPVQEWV
For series [29], the target named is Matrix metalloproteinase-25 (Homo sapiens, UniProt Q9NPA2). The experiment in a line: Inhibition of human MMP25.
Sequence of Matrix metalloproteinase-25 (Q9NPA2 whole entry): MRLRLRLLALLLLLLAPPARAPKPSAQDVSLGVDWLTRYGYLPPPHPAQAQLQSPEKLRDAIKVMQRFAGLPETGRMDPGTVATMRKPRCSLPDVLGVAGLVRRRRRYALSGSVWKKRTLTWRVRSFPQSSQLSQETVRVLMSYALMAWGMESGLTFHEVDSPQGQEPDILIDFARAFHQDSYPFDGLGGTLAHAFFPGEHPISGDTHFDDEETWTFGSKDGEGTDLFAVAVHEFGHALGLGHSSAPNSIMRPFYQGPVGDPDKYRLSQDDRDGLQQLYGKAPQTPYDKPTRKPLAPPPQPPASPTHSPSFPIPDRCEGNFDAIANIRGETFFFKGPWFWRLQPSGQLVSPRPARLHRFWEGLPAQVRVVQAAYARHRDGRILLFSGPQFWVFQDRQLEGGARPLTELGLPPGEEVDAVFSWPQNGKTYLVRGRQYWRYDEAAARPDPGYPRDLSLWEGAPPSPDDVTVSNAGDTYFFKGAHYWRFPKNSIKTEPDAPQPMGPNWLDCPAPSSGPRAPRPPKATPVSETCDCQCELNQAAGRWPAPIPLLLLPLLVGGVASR
In series [30] the target is Matrix metalloproteinase-26 (Homo sapiens, UniProt Q9NRE1). Put plainly: Inhibition of human MMP26.
Sequence of Matrix metalloproteinase-26 (Q9NRE1 whole entry, the tested form may be a part): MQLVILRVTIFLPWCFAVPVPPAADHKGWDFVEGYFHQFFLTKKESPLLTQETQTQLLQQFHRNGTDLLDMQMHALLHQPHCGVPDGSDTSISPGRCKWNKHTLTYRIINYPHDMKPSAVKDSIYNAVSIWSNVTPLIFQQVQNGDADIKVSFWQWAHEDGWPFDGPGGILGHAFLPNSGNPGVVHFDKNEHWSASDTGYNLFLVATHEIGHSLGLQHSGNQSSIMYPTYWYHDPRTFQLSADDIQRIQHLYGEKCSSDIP
The target in series [31] is Disintegrin and metalloproteinase domain-containing protein 17 (Homo sapiens, UniProt P78536). The experiment in a line: Inhibition of human TACE.
Sequence of Disintegrin and metalloproteinase domain-containing protein 17 (P78536 whole entry, the tested form may be a part): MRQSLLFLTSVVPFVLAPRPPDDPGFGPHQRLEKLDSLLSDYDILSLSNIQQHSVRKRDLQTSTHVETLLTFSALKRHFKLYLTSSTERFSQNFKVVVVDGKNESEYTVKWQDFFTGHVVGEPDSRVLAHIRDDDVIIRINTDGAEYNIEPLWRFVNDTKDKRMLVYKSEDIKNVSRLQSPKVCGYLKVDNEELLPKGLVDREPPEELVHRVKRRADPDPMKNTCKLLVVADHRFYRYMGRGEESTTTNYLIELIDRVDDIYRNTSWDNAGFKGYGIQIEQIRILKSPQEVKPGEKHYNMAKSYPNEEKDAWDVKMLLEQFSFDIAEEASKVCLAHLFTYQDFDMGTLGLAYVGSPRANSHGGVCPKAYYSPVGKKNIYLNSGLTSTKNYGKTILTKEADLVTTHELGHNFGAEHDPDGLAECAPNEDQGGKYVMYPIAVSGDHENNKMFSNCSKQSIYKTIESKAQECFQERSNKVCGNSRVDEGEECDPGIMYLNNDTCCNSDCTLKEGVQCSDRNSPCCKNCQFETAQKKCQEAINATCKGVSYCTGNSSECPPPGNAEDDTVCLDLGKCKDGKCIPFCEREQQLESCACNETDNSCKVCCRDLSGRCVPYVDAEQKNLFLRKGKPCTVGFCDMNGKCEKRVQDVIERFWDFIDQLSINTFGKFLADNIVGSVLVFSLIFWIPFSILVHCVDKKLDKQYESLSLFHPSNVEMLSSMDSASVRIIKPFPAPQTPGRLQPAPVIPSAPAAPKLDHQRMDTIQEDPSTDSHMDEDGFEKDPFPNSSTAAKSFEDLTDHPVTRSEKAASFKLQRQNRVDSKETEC
Series [32] has as its target T2, Sodium-dependent noradrenaline transporter (Homo sapiens, UniProt P23975). The experiment in a line: Inhibition of human norepinephrine transporter.
Series [33] can be described thus: Inhibition of PDE11.
The nature of series [34]: Fraction unbound in human plasma. Type of series: ADME, cell-free.
The test system of series [35] is Pseudomonas aeruginosa. Put plainly: Antibacterial activity against penicillin-resistant,quinolone-sensitive Pseudomonas aeruginosa UC12120 clinical isolate infected in sc dosed mouse administered 0.5 and 4 hrs post-infection measured after 24 hrs. The series is classed as functional.
Series [36] relates to Pseudomonas aeruginosa. Put plainly: Antibacterial activity against penicillin-resistant,quinolone-sensitive Pseudomonas aeruginosa UC12120 clinical isolate infected in mouse assessed as log reduction in bacterial burden in spleen administered 0.5 and 4 hrs post-infection measured after 24 hrs. Type of series: functional.
Series [37] concerns Pseudomonas aeruginosa. The experiment in a line: Antibacterial activity against penicillin-resistant,quinolone-sensitive Pseudomonas aeruginosa UC12120 clinical isolate infected in sc dosed mouse assessed as host survival administered 0.5 and 4 hrs post-infection measured after 96 hrs. Type of series: functional. Conditions: read-out: PD50.
The target of series [38] is T2, Sodium-dependent noradrenaline transporter. Conditions: 10 uM.
Description: Inhibition of human norepinephrine transporter at 10 uM

One may read the pIC50 as the IC50 on a negative log10 scale, so that one unit is a factor of ten. The MIC is the lowest concentration that inhibits growth of the organism. One may read the MIC90 as the lowest concentration that inhibits either 90% of growth or 90% of the strains tested, depending on the study. Read a low MIC90 as higher susceptibility. As a reminder, the clearance is a measure of how efficiently the substance is removed, as volume per time. Read a low clearance as a low capacity for elimination. Broadly, the AUC is the area under the concentration-time curve, a measure of exposure. Read a low AUC as low exposure. The term half-life denotes how long it takes for the measured level to halve. Higher therefore signals slow loss. A word on the MIC50: it is the lowest concentration that inhibits either 50% of growth or 50% of the strains tested, depending on the study. A low value points to greater potency. What is called pKi is the Ki on a negative log10 scale, so that one unit is a factor of ten. As a reminder, the fraction unbound is free concentration divided by total concentration. Higher therefore signals much free substance. What is called inhibition is the percentage by which the read-out fell short of the control. Low readings indicate little suppression, high ones strong suppression.

pIC50, pKi: −log10 of the molar value. Converted amounts (≈) assume the structure as drawn.

T2 sequence (P23975 whole entry): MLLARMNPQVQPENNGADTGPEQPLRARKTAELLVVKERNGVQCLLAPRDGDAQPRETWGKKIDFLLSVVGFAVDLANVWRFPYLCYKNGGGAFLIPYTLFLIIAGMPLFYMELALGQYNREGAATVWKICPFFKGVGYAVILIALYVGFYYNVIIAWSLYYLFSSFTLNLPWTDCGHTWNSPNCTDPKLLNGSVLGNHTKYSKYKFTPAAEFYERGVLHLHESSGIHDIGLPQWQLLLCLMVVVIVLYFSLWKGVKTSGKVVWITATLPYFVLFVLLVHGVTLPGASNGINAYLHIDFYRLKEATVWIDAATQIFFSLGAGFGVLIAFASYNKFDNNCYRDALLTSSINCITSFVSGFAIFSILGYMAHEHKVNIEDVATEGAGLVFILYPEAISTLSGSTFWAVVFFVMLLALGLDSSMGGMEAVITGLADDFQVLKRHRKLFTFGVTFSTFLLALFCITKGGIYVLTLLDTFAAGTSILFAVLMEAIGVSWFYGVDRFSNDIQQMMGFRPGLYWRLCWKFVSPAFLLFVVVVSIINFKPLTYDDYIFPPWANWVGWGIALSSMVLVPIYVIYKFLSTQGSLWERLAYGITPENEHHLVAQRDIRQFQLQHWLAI

`C[C@@](CCc1ccc(-c2ccc(O)cc2)cc1)(C(=O)NO)S(C)(=O)=O` gave a pIC50 in [1] of 8.43. Moreover, the MIC in [2] was 0.5 µg/mL (≈ 1.38 µM); in [3] it was greater than 64 µg/mL. Also, the MIC90 in [4] is 2 µg/mL (≈ 5.5 µM); in series [5], 16 µg/mL (≈ 44 µM); in series [6], 4 µg/mL (≈ 11 µM); in series [7], 16 µg/mL (≈ 44 µM); in [8], 8 µg/mL (≈ 22 µM); in series [9] it was greater than 64 µg/mL. The molecule also registered an MIC90 in series [14] of 4 µg/mL (≈ 11 µM). The clearance in [10] turned out to be 65 mL/min/kg. Also, in series [11], the Vd stood at 2.6 L/kg. Further, in series [12], the AUC stood at 2500 ng·h/mL. In addition, the half-life in [13] is 84 min. In addition, in [14], the MIC50 was 1 µg/mL (≈ 2.75 µM).

Take `C[C@@](CCc1ccc(-c2ccc(C#N)cc2)cc1)(C(=O)NO)S(C)(=O)=O`: in series [1], the pIC50 is 9.19. Moreover, the MIC is 0.125 µg/mL (≈ 0.336 µM) in [2] and greater than 64 µg/mL in series [3]. Besides, the MIC90 amounted to 1 µg/mL (≈ 2.68 µM) in [4]; 2 µg/mL (≈ 5.37 µM) in [5]; 0.5 µg/mL (≈ 1.34 µM) in series [6]; 1 µg/mL (≈ 2.68 µM) in [7]; 2 µg/mL (≈ 5.37 µM) in series [8]; 16 µg/mL (≈ 43 µM) in series [9]. Besides, in series [10], the clearance came to 53 mL/min/kg. Besides, the Vd in series [11] came out at 1.4 L/kg. Also, the AUC in series [12] turned out to be 3100 ng·h/mL. The half-life in series [13] was 36 min.

Turning to `C[C@@](CCc1ccc(-c2ccc(O)cc2)cc1)(C(=O)O)S(C)(=O)=O`, the pIC50 in [1] is less than 7.03. The MIC in [2] and in [3] was greater than 64 µg/mL throughout. The same molecule returned a clearance in series [10] of 15 mL/min/kg. In series [11], the Vd is 0.4 L/kg. Besides, the AUC in series [12] was determined as 10900 ng·h/mL. Further, the half-life in [13] was 42 min.

As to `C[C@@](CCc1ccc(-c2ccccc2)cc1)(C(=O)NO)S(C)(=O)=O`, the values for the MIC in series [2], in series [3] and in series [15] were 0.125 µg/mL (≈ 0.36 µM), greater than 64 µg/mL and 8 ng/mL (≈ 0.023 µM), respectively. Also, the MIC90 in [4] came out at 4 µg/mL (≈ 11.5 µM); in [5], 16 µg/mL (≈ 46.1 µM); in series [6] it was 2 µg/mL (≈ 5.76 µM); in series [7], 4 µg/mL (≈ 11.5 µM); in series [8] it was 8 µg/mL (≈ 23 µM); in series [9] it was 32 µg/mL (≈ 92.1 µM). Besides, the MIC90 in series [14] is 2 µg/mL (≈ 5.76 µM). Further, the pKi in [16], in [17], in series [18], in series [19], in [20] and in series [21] was less than 5.00 in each case. Also, the pKi is 5.87 in series [22]; 5.11 in series [23]; less than 5.00 in series [24]; less than 5.00 in [25]; less than 5.00 in series [26]; less than 5.00 in [27]. Moreover, the pKi was less than 5.00 in series [28]; less than 5.00 in series [29]; less than 5.00 in series [30]; less than 5.00 in series [31]; 6.60 in [32]. The values for the pIC50 in series [32] and in series [33] were 6.47 and 4.74, respectively. This molecule had a clearance in [10] of 58 mL/min/kg. Besides, the Vd in [11] is 2.7 L/kg. Besides, the exposure (AUC) in series [12] came out at 2800 ng·h/mL. The half-life in series [13] is 192 min. Moreover, the fraction unbound in series [34] turned out to be 0.02. For the same molecule, the ED50 in series [35] amounted to 35 mg/kg; in series [37], 63.4 mg/kg. Besides, the FC in series [36] is 6.2. Besides, the MIC50 in series [14] worked out at 0.5 µg/mL (≈ 1.44 µM). The same molecule showed an inhibition in series [38] greater than 50%.
